melting point | Compound
176 to 178 °C | CCOC(=O)c1cn(CCF)c2nc(S(=O)(=O)CC)c(F)cc2c1=O
215 to 217 °C | CNn1cc(C(=O)O)c(=O)c2ccc(C)nc21
106 to 107 °C | COc1ccnc(C(=O)NCCNC(=O)OC(C)(C)C)c1
79 to 80 °C | CC(=O)Oc1cnccc1CCCOc1cccnc1Oc1ccccc1
91 to 93 °C | CCCOC(=O)c1cc(=O)c(Sc2ccc(OC)cc2)co1
154 °C | COc1ccc(Br)c(C(=O)N2CCN(S(=O)(=O)c3c(F)cccc3F)CC2)c1
177 to 178 °C | CCCC(=O)Nc1c(C)c(C)c2c(c1C)C(c1ccc(C(C)C)cc1)CO2 (centres undefined)
222 to 224 °C | COc1cc(Cl)ccc1C(=O)Nc1ccc(C(=O)N2Cc3cccn3Cc3ccccc32)cc1
219 to 221 °C | CC(C)(C)OC(=O)N1CCCN(CC2=Nc3cccc4c(=O)[nH]nc(c34)N2)CC1
197 to 198 °C | Cc1c(C)c2c(c(C)c1NC(=O)CC(C)(C)C)C(N1CCCC1)C(C)(C)O2 (centres undefined)
201 to 207 °C | CCOc1cc(N)c(Cl)cc1C(=O)NCC1CN(CC2CCN(C(N)=O)CC2)CCO1 (centres undefined)
135 °C | CNC(=S)Nc1ccc(Cc2cc(C)c(C(=O)c3ccc(Cl)cc3)n2C)nc1
133 to 135 °C | Cc1ccc(CC2CCN(C(=O)C(=O)Nc3ccc4[nH]c(=O)oc4c3)CC2)cc1
178 to 179 °C | CCn1ncc2c1ncc1c(NCCCN(C)C)nc3cc(C)nn3c12
100 to 109 °C | COCCOCCOCC(=O)N(C)c1c(I)c(N)c(I)c(C(=O)O)c1I
53 °C | Brc1ccc(SCCOCCSc2ccc(Br)cc2)cc1
138 to 139 °C | CC(=O)NCCCCC(NC(C)=O)C(=O)O (racemic)
> 270 °C | CCCn1c(=O)c2[nH]c(C3CCCC3)nc2n(CCc2ccc(NC(=O)CC)cc2)c1=O
216 to 217 °C | Cc1ccc(NC(=O)c2cc(Br)c(Br)s2)cc1C
384 °C | CCCn1c(=O)[nH]c2ccc(C(=O)c3ncc4ccc(C(=O)O)cn34)cc2c1=O
161 to 163 °C | O=C(O)c1ccc2c(c1)c(=O)[nH]c(=O)n2CCCCN1CCC(OC(c2ccccc2)c2ccccc2)CC1
112 °C | CCCCc1ccc(OC)c(-c2csc(NC(=O)c3ccc(C(=O)CCN4CCC(NC(C)=O)C4)cc3)n2)c1 (centres undefined)
80 to 82 °C | CCOC(=O)c1cnn(-c2c(Cl)cc(C(F)(F)F)cc2Cl)c1Br

melting point | Compound
98 to 100 °C | CSC(=NCCSCc1cc2ccc(CN(C)C)cc2o1)NC#N
155 to 157 °C | CCOC(=O)COc1ccc(C(=O)Nc2ccccc2Sc2cccc(O)c2-c2nnn[nH]2)cc1
258 °C | COCc1c(C(=O)c2ccccc2)ncc2[nH]c3ccc(O)cc3c12
72 to 89 °C | CC(C)CCCC(C)NC(=O)CCC(O)c1ccccc1 (centres undefined)
263 to 265 °C | CN(C(=O)C(F)(F)F)C1(C)CN(c2nc3c(cc2F)c(=O)c(C(=O)O)cn3C(C)(C)C)C1
86 to 87 °C | CCOC(=O)C(OC)c1nn(-c2ccc(Cl)cc2)c2c1CCCC2 (centres undefined)
112 to 117 °C | CCCc1c(CSc2nccc(OCC(=O)OCC)n2)ccc(C(C)=O)c1O
138 to 140 °C | CCc1[nH]n(C2CCCC2)c2nc(COS(C)(=O)=O)nc(=O)c1-2
150 °C | CCN(CC)C(=O)[C@H]1C[C@H](C(=O)OC(C)(C)C)N(C(=O)CNC(=O)Nc2cccc(C(=O)O)c2)[C@@H]1c1ccccc1F (racemic)
92 to 93 °C | CC(=O)OC(CS(=O)(=O)CC(OC(C)=O)c1ccc(N)cc1)c1ccc(N)cc1 (centres undefined)
114 to 115 °C | Cc1cc(C)n(C(=O)C2c3ccccc3Oc3ccccc32)n1
122 to 124 °C | COC(=O)C(Oc1ccc(C2CCCCC2)cc1)c1ccc(Oc2ccc(Cl)cc2)cc1 (centres undefined)
192 to 194 °C | CCCCOc1ccc(C(=O)N[C@@H]2COc3cccc(N4CCN(C)CC4)c3C2)cc1
89 to 91 °C | COP(=O)(O)Cc1ccc(O)cc1
192 to 193 °C | COc1ccc(C2=NN(Cc3ccc(C(=O)O)cc3)C(=O)[C@H]3CC=CC[C@@H]23)cc1OC (relative stereo)
75 to 76 °C | CON=C(OCC(=O)OC)C(Cl)=Cc1cc(-n2ncc(C(F)(F)F)c(C)c2=O)c(F)cc1Cl
> 250 °C | CCOC(=O)c1cn2c3c(c(Br)c(F)cc3c1=O)OCC2C (centres undefined)
194 to 195 °C | CC(=O)N1CCN(Cc2nnc(-c3cc4cccc(N(C)S(=O)(=O)c5cccs5)c4[nH]3)s2)CC1
> 250 °C | COc1ccc(C(=O)Nc2c(Cl)cncc2Cl)c2c1oc1ccc(NC(=O)NCC(=O)O)cc12
149 to 150 °C | CON=C(C)c1ccc(N2CC(CO)OC2=O)cc1 (centres undefined)
186 to 187 °C | CCOC(=O)c1sc(Oc2ccc(NC(=O)OC(C)(C)C)cc2)c2c1CCc1cnn(C)c1-2
224 to 226 °C | Cc1[nH]c(=O)sc1C(=O)c1ccc(N(C)C)cc1
200 to 202 °C | COc1ccn(-c2nc(C)c(C(=O)NCc3cccnc3)s2)c(=O)c1

The remaining lines, values behind:

Compound | melting point
COC(=O)C1CCC2C3CCC4CC(O)CCC4(C)C3C(NC3CCCC3)CC12C (centres undefined) | 143 to 145 °C
N#Cc1ccc(-c2cccc(OS(N)(=O)=O)c2)cc1Cn1cncn1 | 137 to 138 °C
NNC(=O)Cc1c(F)cccc1F | 177 to 178 °C
Cc1nc(Cl)c2c(c1O)COC2(c1ccccc1)c1ccccc1 | 240 °C
O=c1[nH]c2ncc(-c3ccc(O)cc3)nc2n1CC1CCCCC1 | 302 to 303 °C
Cc1csc(NC(=O)N(C)C)n1 | 97 to 98 °C
c1ccc(C(Nc2ccncc2)c2ccccc2)cc1 | 148 to 150 °C
Cc1cc(O)c(Oc2ccccc2C#N)cc1[N+](=O)[O-] | 157 to 159 °C
CC(C)(C)OC(=O)NC1CCc2ccccc2C(=Cc2ccccc2)C1=O (centres undefined) | 156 to 158 °C
CCCn1c(=S)[nH]c(=S)c2[nH]c(C3CC3)nc21 | > 245 °C
Oc1cc(O)cc(OCc2ccccc2)c1 | 85 to 86 °C
COc1ncc(Cl)cc1C1OC(=O)NC1=O (centres undefined) | 199 to 204 °C
O=[N+]([O-])c1ccc(-c2nc(-c3cccnc3)no2)cc1 | 163 to 166 °C
OCCCC(c1c[nH]c2ccccc12)c1c[nH]c2ccccc12 | 110 to 115 °C
CC1CCCN(C(=O)C2C(C)c3ccccc3N2c2ccc(Cl)nn2)C1 (centres undefined) | 169 to 171 °C
CCN1CCc2ccc(Nc3ncc(Cl)c(Nc4ccccc4C(=O)NC)n3)cc2CC1 | 201 °C
O=C(O)c1cccc(-c2ccc3c(c2)C(c2ccc(Cl)cc2Cl)CCO3)c1 (centres undefined) | 223 to 224 °C
O=C(O)c1ccc(-c2nc(-c3ccc(C(F)(F)F)cc3)no2)c([N+](=O)[O-])c1 | 233 to 234 °C
C[C@@H](C(N)=O)c1ccc(NS(=O)(=O)c2ccccc2)cc1 | 152 to 153 °C
O=c1[nH]c2cc(F)c(F)cc2c(=O)n1OCc1ccccc1 | > 250 °C
Cn1c(CO)nc2ncccc21 | 130 to 132 °C
CN1CCNS(=O)(=O)c2cc(Oc3ccccc3)ccc21 | 128 to 131 °C
FC(F)(F)c1cc(CO[C@H]2CCCN(Cc3cccnn3)[C@H]2c2ccccc2)cc(C(F)(F)F)c1 | 111 to 113 °C
Cc1cc(CCNc2ncnc3c(F)ccc(F)c23)ccc1O | 244 to 251 °C
O=C(Nc1cccc(F)c1)C1C(=O)Sc2ccccc21 (centres undefined) | 169 to 171 °C
Cn1cc2c3c(c(Cl)cc2n1)CCC3=O | 207 to 209 °C
Nc1ncn(C[C@H](O)COC(c2ccccc2)(c2ccccc2)c2ccccc2)c(=O)n1 | 130 to 132 °C

Compound | melting point
C=CCSc1ncn(C(=O)N(CC=C)CC=C)n1 | 27 to 30 °C
C[C@H]1NC(Cc2ccc(Br)c(Oc3cc(C#N)cc(C(F)F)c3)c2F)=NNC1=O | 184 to 186 °C
CC1=C(N)C(C)C2CC(C)(CN3CCN(c4ccc(-n5ccnc5)cc4)CC3)OC2=C1C (centres undefined) | 165 to 167 °C
CC(C)(C#N)ON1C(C)(C)CC(OC(=O)c2ccccc2)CC1(C)C | 128 to 129 °C
O=C(N[C@H]1CC[C@H](CCN2CCN(c3nccc4c3CCO4)CC2)CC1)c1cnc(N2CCOCC2)cn1 | 192 °C
CCCCc1nc(Cl)c(Cl)[nH]1 | 122 to 123 °C
OCC1C(Cl)=Cc2ccccc21 (centres undefined) | 104 to 105 °C
COc1cc(OC(c2ccccc2)c2ccccc2)ccc1/C=C/c1cc(/C=C/c2ccc3cc[nH]c3c2)[nH]n1 | 114 to 119 °C
CC1(CN(c2ccc(Cl)cc2)S(C)(=O)=O)SCCS1 | 114 to 117 °C
Cc1ccc(-c2cn(C)c(-c3ccc4c(c3)C(C)(C)c3ccccc3-4)n2)s1 | 188 to 191 °C
CSc1nc(Cl)c(-c2ccc(C)cc2)c(Cl)n1 | 74 to 78 °C
Clc1cc2nc(CBr)c(CBr)nc2cc1Cl | 154 to 156 °C
CC1(C)CCC(=O)c2c1oc(-c1ccncc1)c2-c1ccccc1 | 156 to 157 °C
CC1(C)[C@@H](CNc2ncccc2C#N)CC[C@@]1(C)NCC(=O)N1C[C@@H](F)C[C@H]1C#N | 96 to 99 °C
CN(C)C=C(C#N)C(=O)c1nccs1 | 126 °C
Cn1cnc([N+](=O)[O-])c1NCCN1CCC(Nc2nc3cccnc3n2Cc2ccc(F)cc2)CC1 | 199 °C
CCCc1nc2c(N)nc3cc(Oc4ccccc4N)ccc3c2n1CC(C)C | 197 to 199 °C
NN=C(c1ccc(F)cc1)c1ccc(F)cc1 | 78 °C
O=C1c2cccc3cc4ccccc4c(c23)C(=O)N1CCNCCNCCN1C(=O)c2cccc3cc4ccccc4c(c23)C1=O | 203 °C
O=C1c2ccccc2C(=O)N1SN1C(=O)c2ccccc2C1=O | 301 to 315 °C
Cc1cscc1-c1cccc2c1ccn2-c1ccnc(NC2CCC(C(=O)N3CCC(O)CC3)CC2)n1 (centres undefined) | 168 to 188 °C
O=C(c1ccccc1F)c1ccc(O)c(Cl)c1Cl | 128 to 131 °C
Fc1ccc(-c2ncn(C3CCNCC3)c2-c2ccnc(Oc3ccc(Oc4ccccc4)cc3)n2)cc1 | 174 to 175 °C
Cc1ccc(-c2cccc(C(N)=NO)c2)cc1 | 134 to 136 °C
COc1ccc(Cl)cc1-c1c(Sc2ncccn2)c(=O)[nH]c2ccc(C(F)(F)F)cc12 | 302 to 303 °C
CNc1c(S(=O)C(F)(F)F)c(C#N)nn1-c1c(Cl)cc(C(F)(F)F)cc1Cl (centres undefined) | 227 °C

— a melting point compilation (Tetko et al.; mined from patent text by program, amines drawn as free bases though some values may be those of a salt)
